From patent publication US10287328B2, “Treatment of diabetes, toll-like receptor 4 modulators and methods for using the same” (KeMyth Biotech Co., Ltd., priority 2016, dated 2019)

Key:
Type in all cases: cell-based, human
HUVEC = test: Low shear stress experiment on HUVEC (morphology, F-actin immunofluorescence); conditions: peptide pre-treatment 1 hour (100 mM), shear stress 4 dyn/cm^2 for 6 hours
Method: HUVEC was purchased by ScienCell Research Laboratories (CA, USA). The pellet was resuspended in M199 culture medium supplemented with penicillin/streptomycin and 20% fetal bovine serum (FBS), after which the cells were plated onto cell culture dishes. ECs were grown in Petri dishes for three days and then seeded onto glass slides pre-coated with rat tail type I collagen. Secondary cultures were used for the experiments within two days after reaching confluence (˜1-2×10^5 cells/cm^2).^12
HUVECs was mounted on a slide in a parallel-plate flow chamber, which was connected to a perfusion loop system (15). The system was kept in a constant-temperature, maintained at pH 7.4 by gassing with 5% CO2. The osmolality of the medium was kept in the range 285-295 mOsm/kg during perfusion. The flow channel width (w) was 1 cm and the channel height (h) was 0.025 cm. […]
After exposing to shear stress with or without peptide treatment, HUVECs were washed, fixed with 4% formaldehyde, and permeabilized by 1% Triton X-100 in PBS at 37° C. for 30 min. […] Intracytoplasmic F-actin immunofluorescence was detected by staining with phalloidin-fluorescein isothiocyanate (FITC) (1:1000 eBioscience) for 1 hr at room temperature, and cell nuclear stained with 4′,6-diamidino-2-phenylindole (DAPI) for 10 min at room temperature. Fluorescent cells were photographed by a fluorescence microscope with CCD (OLYMPUS).

[1] = tested on: ERK1/2 and NFκB-p65 subunit phosphorylation; test: Western blot of LPS-induced ERK1/2 and NFκB-p65 phosphorylation in HUVECs; conditions: LPS 1 μg/mL plus C70PLY4 100, 300 and 500 nM, 24 h
Method: Cells were kept as the control, treated with LPS (1 μg/mL), or co-treated with LPS (1 μg/mL) and C70PLY4 (100, 300, and 500 nM) for 24 h and the phosphorylation of ERK1/2 and NFκB-p65 subunit were determined by Western blot. Cells were collected by scraping and lysed with RIPA buffer containing 1% NP-40, 0.5% sodium deoxycholate, 0.1% SDS, and a protease inhibitor mixture (PMSF, aprotinin, and sodium orthovanadate). The total cell lysate (50 μg of protein) was separated by SDS-polyacrylamide gel electrophoresis (PAGE) (10% running, 4% stacking) and transferred onto a polyvinylidene fluoride membrane (Immobilon P, 0.45-μm pore size). The membrane was then incubated with the designated antibodies. Immunodetection was performed by using the Western-Light chemiluminescent detection system (Applied Biosystems, Foster City, Calif.).
The present study determined if C70PLY4 inhibits LPS-induced signaling, including protein ERK1/2 and NFκB-p65 subunit, in the human umbilical vein endothelial cells (HUVECs) by using western blot assay (FIG. 14, panel A). The cells were kept as control, treated with LPS (1 μg/mL) only for 24 h, or co-treated with LPS (1 μg/mL) and C70PLY4 (100, 300, and 500 nM) for 24 h and the protein phosphorylation of ERK1/2 and NFκB-p65 subunit were examined.

HUVECs = test: Cell apoptosis, TUNEL assay in HUVECs; conditions: compared to control cells
Method: Cell apoptosis was detected by using commercial terminal deoxynucleotidyl transferase-dUTP nick end labeling (TUNEL) and caspase-3 activity kits, i.e., Apo-BrdU in Situ DNA Fragmentation Assay Kit (BioVision) and NucView™ 488 Caspase-3 Enzyme Substrate (Biotium). In brief, after incubation with M199 media in the presence or absence of […] various PLY peptides, at 37° C., 5% CO2 for 1 hour, HUVECs were washed with PBS and fixed with fixation buffer on ice for 20 min. Cells were then soaked in 70% alcohol for 1 hr. After 2 times of wash by washing buffer, cells were incubated in DNA labeling solution for 60 min at 37° C. Cells were then treated with rinse buffer and incubated with antibody buffer for 30 min at room temperature. The cell nuclei were stained with propidium iodide for 30 min. Samples were observed by fluorescent microscopeand photographed charge-coupled device (CCD) camera.

For “QDLTAHFTTSIPLKGNVRNLSVKIRECTGLAWEWWRTVYEKTDLPLVRKRTISIWGTTLYPQVEDKVEND [C70PLY4]”, which “low shear stress induced cytoskeleton (F-actin) remodeling” value (HUVEC) is on record?
The value was “almost block”.

What about the “low shear stress induced morphological change” value (HUVEC) of the same sequence?
Its value is “almost block”.

And the “LPS-induced ERK1/2 phosphorylation” value [1]?
Its value is “significantly inhibited”.

And the “LPS-induced NFκB-p65 subunit phosphorylation” value [1]?
Its value is “significantly inhibited”.

And the “apoptotic potential, TUNEL assay” value (HUVECs)?
The value was “no apoptotic potential”.
